Laboratory results: PubChem BioAssay AID248 (DTP/NCI, 2004)
Values joined by “and” are separate entries in the source; they are usually repeats but may differ in a detail not shown here. Equal entries are not always repeated. Inconclusive results and toxic doses are left out. No stated cut-off is given here; in the data, active means T/C of 150% or more; inactive means T/C below 125%.

Test system: L1210 leukemia ip in BDF1 mice, survival T/C
Assay: NCI In Vivo Anticancer Drug Screen. Data for tumor model L1210 Leukemia (intraperitoneal) in B6D2F1 (BDF1) mice
Conditions: higher = longer survival
Summary of the method: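 Tumor was transplanted into mice, which were then dosed with test compound or vehicle alone. Survival was recorded for each group, and the treated figure was expressed relative to the control figure.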

Measured: T/C

COc1cc2cc3c4cc(OC)c(OC)cc4cc[n+]3c(C)c2cc1OC (tested in a mixture with another compound)
inactive: endpoint: mean survival time, dose: 5.0 mg/kg/injection, schedule: Q01DX009 (ip), vehicle: saline 105 % of control and 113 % of control | endpoint: mean survival time, dose: 8.0 mg/kg/injection, schedule: Q01DX009 (ip), vehicle: Klucel (hydroxypropylcellulose) (HPC) 114 % of control | endpoint: mean survival time, dose: 10.0 mg/kg/injection, schedule: Q01DX009 (ip), vehicle: saline 105 % of control | endpoint: mean survival time, dose: 16.0 mg/kg/injection, schedule: Q01DX009 (ip), vehicle: clinical formulation 116 % of control | endpoint: mean survival time, dose: 16.0 mg/kg/injection, schedule: Q03HX024 (ip), vehicle: saline 107 % of control | endpoint: mean survival time, dose: 40.0 mg/kg/injection, schedule: Q01DX009 (ip), vehicle: saline 116 % of control | endpoint: mean survival time, dose: 64.0 mg/kg/injection, schedule: Q03HX024 (ip), vehicle: saline 113 % of control | endpoint: mean survival time, dose: 80.0 mg/kg/injection, schedule: Q01DX009 (ip), vehicle: saline 117 % of control | endpoint: mean survival time, dose: 100.0 mg/kg/injection, schedule: Q04DX003 (ip), vehicle: saline with Tween-80 116 % of control | endpoint: mean survival time, dose: 128.0 mg/kg/injection, schedule: Q08DX002 (ip), vehicle: saline 112 % of control | endpoint: mean survival time, dose: 150.0 mg/kg/injection, schedule: Q04DX003 (ip), vehicle: saline with Tween-80 117 % of control | endpoint: mean survival time, dose: 200.0 mg/kg/injection, schedule: Q04DX002 (ip), vehicle: saline 105 % of control | endpoint: mean survival time, dose: 256.0 mg/kg/injection, schedule: Q04DX003 (ip), vehicle: saline 118 % of control | endpoint: median survival time, dose: 8.0 mg/kg/injection, schedule: Q01DX009 (ip), vehicle: Klucel (hydroxypropylcellulose) (HPC) 108 % of control | endpoint: median survival time, dose: 8.0 mg/kg/injection, schedule: Q01DX009 (ip), vehicle: clinical formulation 110 % of control | endpoint: median survival time, dose: 8.0 mg/kg/injection, schedule: Q01DX009 (ip), vehicle: other 117 % of control | endpoint: median survival time, dose: 8.0 mg/kg/injection, schedule: Q01DX009 (ip), vehicle: water 111 % of control | endpoint: median survival time, dose: 8.0 mg/kg/injection, schedule: Q01DX009 (oral), vehicle: other 99 % of control and 113 % of control | endpoint: median survival time, dose: 8.0 mg/kg/injection, schedule: Q01DX009 (sc), vehicle: other 104 % of control | endpoint: median survival time, dose: 16.0 mg/kg/injection, schedule: Q01DX009 (ip), vehicle: Klucel (hydroxypropylcellulose) (HPC) 104 % of control | endpoint: median survival time, dose: 16.0 mg/kg/injection, schedule: Q01DX009 (ip), vehicle: clinical formulation 114 % of control | endpoint: median survival time, dose: 16.0 mg/kg/injection, schedule: Q01DX009 (oral), vehicle: other 98 % of control and 105 % of control | endpoint: median survival time, dose: 16.0 mg/kg/injection, schedule: Q01DX009 (oral), vehicle: saline 100 % of control | endpoint: median survival time, dose: 16.0 mg/kg/injection, schedule: Q01DX009 (sc), vehicle: other 104 % of control | endpoint: median survival time, dose: 25.0 mg/kg/injection, schedule: Q01DX009 (ip), vehicle: Klucel (hydroxypropylcellulose) (HPC) 98 % of control and 99 % of control | endpoint: median survival time, dose: 25.0 mg/kg/injection, schedule: Q01DX009 (ip), vehicle: other 98 % of control and 99 % of control | endpoint: median survival time, dose: 25.0 mg/kg/injection, schedule: Q01DX009 (ip), vehicle: saline 99 % of control and 100 % of control | endpoint: median survival time, dose: 32.0 mg/kg/injection, schedule: Q01DX001 (oral), vehicle: saline 95 % of control and 100 % of control | endpoint: median survival time, dose: 32.0 mg/kg/injection, schedule: Q01DX001 (sc), vehicle: saline 95 % of control | endpoint: median survival time, dose: 32.0 mg/kg/injection, schedule: Q01DX009 (oral), vehicle: other 115 % of control and 116 % of control | endpoint: median survival time, dose: 32.0 mg/kg/injection, schedule: Q01DX009 (oral), vehicle: saline 100 % of control | endpoint: median survival time, dose: 32.0 mg/kg/injection, schedule: Q01DX009 (sc), vehicle: other 100 % of control | endpoint: median survival time, dose: 32.0 mg/kg/injection, schedule: Q01DX009 (sc), vehicle: saline 95 % of control | endpoint: median survival time, dose: 50.0 mg/kg/injection, schedule: Q01DX009 (ip), vehicle: Klucel (hydroxypropylcellulose) (HPC) 100 % of control and 101 % of control | endpoint: median survival time, dose: 50.0 mg/kg/injection, schedule: Q01DX009 (ip), vehicle: other 95 % of control and 96 % of control | endpoint: median survival time, dose: 50.0 mg/kg/injection, schedule: Q01DX009 (ip), vehicle: saline 100 % of control and 101 % of control | endpoint: median survival time, dose: 64.0 mg/kg/injection, schedule: Q01DX001 (ip), vehicle: other 118 % of control | endpoint: median survival time, dose: 64.0 mg/kg/injection, schedule: Q01DX001 (oral), vehicle: other 100 % of control and 101 % of control | endpoint: median survival time, dose: 64.0 mg/kg/injection, schedule: Q01DX001 (oral), vehicle: saline 100 % of control | endpoint: median survival time, dose: 64.0 mg/kg/injection, schedule: Q01DX001 (sc), vehicle: other 114 % of control | endpoint: median survival time, dose: 64.0 mg/kg/injection, schedule: Q01DX009 (oral), vehicle: other 106 % of control and 114 % of control | endpoint: median survival time, dose: 64.0 mg/kg/injection, schedule: Q01DX009 (oral), vehicle: saline 100 % of control | endpoint: median survival time, dose: 64.0 mg/kg/injection, schedule: Q01DX009 (sc), vehicle: other 101 % of control | endpoint: median survival time, dose: 64.0 mg/kg/injection, schedule: Q01DX009 (sc), vehicle: saline 100 % of control | endpoint: median survival time, dose: 64.0 mg/kg/injection, schedule: Q04DX003 (sc), vehicle: saline 100 % of control | endpoint: median survival time, dose: 100.0 mg/kg/injection, schedule: Q01DX009 (ip), vehicle: Klucel (hydroxypropylcellulose) (HPC) 96 % of control and 97 % of control | endpoint: median survival time, dose: 100.0 mg/kg/injection, schedule: Q01DX009 (ip), vehicle: saline 105 % of control and 108 % of control | endpoint: median survival time, dose: 128.0 mg/kg/injection, schedule: Q01DX001 (oral), vehicle: other 100 % of control and 104 % of control | endpoint: median survival time, dose: 128.0 mg/kg/injection, schedule: Q01DX001 (oral), vehicle: saline 100 % of control | endpoint: median survival time, dose: 128.0 mg/kg/injection, schedule: Q01DX001 (sc), vehicle: other 100 % of control | endpoint: median survival time, dose: 128.0 mg/kg/injection, schedule: Q01DX001 (sc), vehicle: saline 100 % of control | endpoint: median survival time, dose: 128.0 mg/kg/injection, schedule: Q01DX009 (ip), vehicle: water 98 % of control | endpoint: median survival time, dose: 128.0 mg/kg/injection, schedule: Q01DX009 (oral), vehicle: other 98 % of control and 110 % of control | endpoint: median survival time, dose: 128.0 mg/kg/injection, schedule: Q01DX009 (oral), vehicle: saline 100 % of control | endpoint: median survival time, dose: 128.0 mg/kg/injection, schedule: Q01DX009 (sc), vehicle: other 100 % of control | endpoint: median survival time, dose: 128.0 mg/kg/injection, schedule: Q01DX009 (sc), vehicle: saline 105 % of control | endpoint: median survival time, dose: 200.0 mg/kg/injection, schedule: Q01DX009 (ip), vehicle: Klucel (hydroxypropylcellulose) (HPC) 95 % of control and 96 % of control | endpoint: median survival time, dose: 200.0 mg/kg/injection, schedule: Q01DX009 (ip), vehicle: other 117 % of control | endpoint: median survival time, dose: 200.0 mg/kg/injection, schedule: Q01DX009 (ip), vehicle: saline 95 % of control and 98 % of control | endpoint: median survival time, dose: 256.0 mg/kg/injection, schedule: Q01DX001 (oral), vehicle: other 99 % of control and 100 % of control | endpoint: median survival time, dose: 256.0 mg/kg/injection, schedule: Q01DX001 (oral), vehicle: saline 100 % of control | endpoint: median survival time, dose: 256.0 mg/kg/injection, schedule: Q01DX001 (sc), vehicle: other 100 % of control | endpoint: median survival time, dose: 256.0 mg/kg/injection, schedule: Q01DX009 (oral), vehicle: other 100 % of control and 110 % of control | endpoint: median survival time, dose: 256.0 mg/kg/injection, schedule: Q01DX009 (oral), vehicle: saline 110 % of control | endpoint: median survival time, dose: 256.0 mg/kg/injection, schedule: Q01DX009 (sc), vehicle: other 99 % of control | endpoint: median survival time, dose: 256.0 mg/kg/injection, schedule: Q01DX009 (sc), vehicle: saline 110 % of control | endpoint: median survival time, dose: 256.0 mg/kg/injection, schedule: Q04DX003 (sc), vehicle: saline 100 % of control | endpoint: median survival time, dose: 400.0 mg/kg/injection, schedule: Q01DX009 (ip), vehicle: Klucel (hydroxypropylcellulose) (HPC) 96 % of control and 97 % of control | endpoint: median survival time, dose: 512.0 mg/kg/injection, schedule: Q01DX001 (oral), vehicle: other 98 % of control and 101 % of control | endpoint: median survival time, dose: 512.0 mg/kg/injection, schedule: Q01DX001 (oral), vehicle: saline 100 % of control | endpoint: median survival time, dose: 512.0 mg/kg/injection, schedule: Q01DX001 (sc), vehicle: other 99 % of control | endpoint: median survival time, dose: 512.0 mg/kg/injection, schedule: Q01DX001 (sc), vehicle: saline 100 % of control | endpoint: median survival time, dose: 512.0 mg/kg/injection, schedule: Q08DX002 (ip), vehicle: other 99 % of control | endpoint: median survival time, dose: 1024.0 mg/kg/injection, schedule: Q01DX001 (oral), vehicle: other 98 % of control and 100 % of control

COc1cc(-c2c3c(cc4c2OCO4)CC(O)C(C(=O)O)C3)cc(OC)c1OC (centres undefined)
inactive: endpoint: mean survival time, dose: 75.0 mg/kg/injection, schedule: Q01DX001 (ip), vehicle: saline 95 % of control | endpoint: mean survival time, dose: 150.0 mg/kg/injection, schedule: Q01DX001 (ip), vehicle: saline 116 % of control | endpoint: mean survival time, dose: 200.0 mg/kg/injection, schedule: Q01DX001 (ip), vehicle: Klucel (hydroxypropylcellulose) (HPC) 109 % of control | endpoint: mean survival time, dose: 200.0 mg/kg/injection, schedule: Q01DX001 (ip), vehicle: saline 114 % of control | endpoint: mean survival time, dose: 300.0 mg/kg/injection, schedule: Q01DX001 (ip), vehicle: Klucel (hydroxypropylcellulose) (HPC) 116 % of control
